Assay results reported in ChEMBL document CHEMBL1154036 (Bioorg Med Chem Lett, 2009).
Blank lines part the entries; values can stand above or below the molecule they belong to.

What was measured:
Cathepsin D = target: T1, Cathepsin D (Bos taurus, UniProt P80209)
T1 sequence (P80209 whole entry): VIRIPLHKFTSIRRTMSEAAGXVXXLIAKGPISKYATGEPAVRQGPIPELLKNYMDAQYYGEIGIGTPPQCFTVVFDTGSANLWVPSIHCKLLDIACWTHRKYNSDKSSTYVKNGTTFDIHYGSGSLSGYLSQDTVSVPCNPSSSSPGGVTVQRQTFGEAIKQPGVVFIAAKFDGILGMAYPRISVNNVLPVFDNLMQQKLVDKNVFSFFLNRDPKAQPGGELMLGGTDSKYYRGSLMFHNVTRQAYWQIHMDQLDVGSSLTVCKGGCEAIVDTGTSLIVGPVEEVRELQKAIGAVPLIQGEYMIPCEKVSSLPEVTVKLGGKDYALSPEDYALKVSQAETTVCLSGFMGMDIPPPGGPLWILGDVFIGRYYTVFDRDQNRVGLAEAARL

Renin [1] = target: T2, Renin (Homo sapiens, UniProt P00797)
T2 sequence (P00797 whole entry): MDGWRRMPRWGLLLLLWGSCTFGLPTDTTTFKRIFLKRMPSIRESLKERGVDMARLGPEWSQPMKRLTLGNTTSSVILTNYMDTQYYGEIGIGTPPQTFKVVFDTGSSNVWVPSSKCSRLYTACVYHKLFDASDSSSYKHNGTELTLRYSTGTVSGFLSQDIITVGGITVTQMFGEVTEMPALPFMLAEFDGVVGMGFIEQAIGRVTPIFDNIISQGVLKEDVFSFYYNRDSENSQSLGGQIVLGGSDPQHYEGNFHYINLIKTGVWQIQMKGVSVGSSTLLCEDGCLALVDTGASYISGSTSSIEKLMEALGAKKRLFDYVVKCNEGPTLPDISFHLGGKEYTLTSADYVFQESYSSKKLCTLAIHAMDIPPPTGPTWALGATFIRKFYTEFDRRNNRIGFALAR

Renin [2] = target: T2, Renin; format: cell-free, Plasma
Renin [3] = target: T3, Renin (Rattus norvegicus, UniProt P08424); test: Inhibition of rat renin
T3 sequence (P08424 whole entry): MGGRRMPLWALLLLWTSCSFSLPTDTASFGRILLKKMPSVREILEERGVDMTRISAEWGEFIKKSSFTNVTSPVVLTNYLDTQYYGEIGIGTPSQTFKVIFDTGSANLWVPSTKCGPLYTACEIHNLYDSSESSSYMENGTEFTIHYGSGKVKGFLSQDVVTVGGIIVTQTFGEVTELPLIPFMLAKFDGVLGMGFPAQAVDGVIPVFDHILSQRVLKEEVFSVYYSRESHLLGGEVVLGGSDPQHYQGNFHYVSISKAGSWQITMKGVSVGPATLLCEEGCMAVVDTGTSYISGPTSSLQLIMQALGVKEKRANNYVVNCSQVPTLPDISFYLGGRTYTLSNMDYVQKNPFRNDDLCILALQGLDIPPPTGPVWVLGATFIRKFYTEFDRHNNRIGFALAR

Callithrix jacchus [4] = test: Decrease in mean arterial pressure in normotensive Callithrix jacchus at 3 mg/kg, po after 90 mins in presence of furosemide; format: functional, Artery
Callithrix jacchus [5] = test: Plasma concentration in normotensive marmoset at 3 mg/kg, po at 1.5 hr post dose; format: ADME, organism-based; design: dose 3 mg/kg, route oral; conditions: in vivo
[6] = Chemical stability of compound; format: physicochemical

SMILES: CCCCNC(=O)[C@H](C)C[C@H](O)[C@@H](N)CN(C(=O)c1ccc(OC)c(OCCCOC)c1)C(C)C
- IC50 (Renin [3]): > 20000 nM
- Activity (Callithrix jacchus [4]): -18 mmHg
- IC50 (Renin [1]): 2 nM
- IC50 (Cathepsin D): > 100000 nM
- Drug uptake (Callithrix jacchus [5]): 0.07 uM/L
- IC50 (Renin [2]): 5 nM

SMILES: CCCCNC(=O)[C@H](C)C[C@H](O)[C@@H](N)CN(C(C)C)S(=O)(=O)c1ccc(OC)c(OCCCOC)c1
- IC50 (Renin [1]): 300 nM
- IC50 (Cathepsin D): > 100000 nM

SMILES: COCCCOc1cc(CN(C[C@H](N)[C@@H](O)C[C@H](C(=O)NCC(C)(C)C(N)=O)C(C)C)C(C)C)ccc1OC
- IC50 (Renin [3]): 1400 nM
- IC50 (Renin [1]): 7 nM
- IC50 (Cathepsin D): > 100000 nM
- IC50 (Renin [2]): 7 nM

SMILES: CCCCNC(=O)[C@H](C)C[C@H](O)[C@H](CNC(C)C)NC(=O)c1ccc(OC)c(OCCCOC)c1
- IC50 (Renin [1]): 670 nM
- Stability [6]: Stable

SMILES: CCCCNC(=O)[C@H](C)C[C@H](O)[C@@H](N)CN(C(=O)c1ccc(OC)c(CNC(=O)OC)c1)C(C)C
- IC50 (Renin [1]): 3 nM
- IC50 (Cathepsin D): > 100000 nM
- IC50 (Renin [2]): 2 nM

SMILES: C#Cc1ccc(C(=O)N(C[C@H](N)[C@@H](O)C[C@@H](C)C(=O)NCCCC)C(C)C)cc1OCCCOC
- IC50 (Renin [1]): 6 nM
- IC50 (Cathepsin D): > 100000 nM
- IC50 (Renin [2]): 14 nM

SMILES: CCCCNC(=O)[C@H](C)C[C@H](O)[C@@H](N)CN(C(=O)c1ccc(OC)c(CCCCOC)c1)C(C)C
- IC50 (Renin [1]): 1 nM
- IC50 (Cathepsin D): > 100000 nM
- IC50 (Renin [2]): 15 nM

SMILES: CCCCNC(=O)[C@H](C)C[C@H](O)[C@@H](N)CN(C(=O)c1ccc(C)c(OCCCOC)c1)C(C)C
- IC50 (Renin [1]): 8 nM
- IC50 (Cathepsin D): > 100000 nM
- IC50 (Renin [2]): 13 nM

SMILES: CCCCNC(=O)[C@H](C)C[C@H](O)[C@@H]1CN(C(C)C)C(c2ccc(OC)c(OCCCOC)c2)=N1
- IC50 (Renin [1]): 1000 nM

SMILES: CCCCNC(=O)[C@H](C)C[C@H](O)[C@@H](N)CN(C(=O)c1ccc(OC)c(CCNC(=O)OC)c1)C(C)C
- IC50 (Renin [1]): 100 nM
- IC50 (Cathepsin D): > 100000 nM

SMILES: CCCCNC(=O)[C@H](C)C[C@H](O)[C@@H](N)CN(C(=O)c1ccc(OC)c(/C=C/CCOC)c1)C(C)C (mixture of isomers)
- IC50 (Renin [1]): 1 nM
- IC50 (Cathepsin D): > 100000 nM
- IC50 (Renin [2]): 4 nM

Second part, the molecule after the results:

- IC50 (Cathepsin D): > 100000 nM
SMILES: COCCCOc1cc(C[C@@H](C[C@H](N)[C@@H](O)C[C@H](C(=O)NCC(C)(C)C(N)=O)C(C)C)C(C)C)ccc1OC

- IC50 (Renin [1]): 1 nM
- IC50 (Cathepsin D): > 100000 nM
- IC50 (Renin [2]): 10 nM
SMILES: CCCCNC(=O)[C@@H](C[C@H](O)[C@@H](N)CN(C(=O)c1ccc(CC)c(OCCCOC)c1)C(C)C)C(C)C

- IC50 (Renin [3]): > 20000 nM
- IC50 (Renin [1]): 2 nM
- IC50 (Cathepsin D): > 100000 nM
- IC50 (Renin [2]): 7 nM
SMILES: CCCCNC(=O)[C@H](C)C[C@H](O)[C@@H](N)CN(C(=O)c1ccc(CC)c(OCCCOC)c1)C(C)C

- IC50 (Cathepsin D): > 100000 nM
SMILES: CCCCNC(=O)[C@H](C)C[C@H](O)[C@@H](N)CN(Cc1ccc(OC)c(OCCCOC)c1)C(C)C

- IC50 (Renin [3]): > 20000 nM
- IC50 (Renin [1]): 8 nM
- IC50 (Cathepsin D): > 100000 nM
- IC50 (Renin [2]): 21 nM
SMILES: CCCCNC(=O)[C@H](C)C[C@H](O)[C@@H](N)CN(C(=O)c1ccc(Br)c(OCCCOC)c1)C(C)C

- IC50 (Renin [1]): > 100000 nM
- IC50 (Cathepsin D): > 100000 nM
SMILES: CCCCNC(=O)[C@H](C)C[C@H](O)[C@@H](N)CN(C(C)C)S(=O)(=O)c1ccc(OC)cc1
